Reference: patent US20140039044A1, “Hydroxylated Polymethoxyflavone Compositions” (WLLGEN, INC., priority 2006, published 2014)
Read-outs that look alike come from different tables or passages of the source.

How the values were obtained:
HT-29 cells [1] = assay: Cell survival assay (antiproliferative IC50); assay type: cell-based, human
Protocol: Human colon carcinoma COLO205 and HT-29 cell lines (American Type Culture Collection (ATTC), Manassas, Va.) and the leukemia cell line HL-60 were maintained at 37° C. in 5% CO2 air in RPMI 1640 medium supplemented with 10% heat-inactivated fetal bovine serum (Gibco BRL, Grand Island, N.Y.), 100 units/mL penicillin, 100 μg/mL streptomycin and 2 mM 1-glutamine. The human gastric carcinoma AGS cell line (CCRC 60102), obtained from the Food Industry Research and Development Institute (Hsinchu, Taiwan), was maintained as described above, except that DMEM/F 12 was used as the medium rather than the RPMI 1640 medium. The human breast carcinoma MCF-7 cell line MCF-7 (ATTC) was cultured in RPMI 1640 medium supplemented with 5% fetal calf serum at 37° C. in a humidified atmosphere of 5% CO2 in air. The mouse macrophage cell line RAW 264.7 was maintained in RPMI 1640 supplemented with 100 U/ml penicillin, 100 μg/ml streptomycin, and 10% heat-inactivated fetal calf serum.
Cancer cells (2×10^5) were plated in 12-well Petri dishes. The next day, the medium was changed and treated with different concentration of the test compounds or compositions for 24 h. Where individual compounds were to be tested, stock solutions of the compound was prepared to contain 200 μM of the individual hydroxylated or non-hydroxylated PMF in dimethylsulfoxide (DMSO). Control cells were treated with DMSO to a final concentration of 0.05% (v/v). Depending on the objective of the particular experiment, cells were treating with test compound or composition for 1, 3 or 6 days. At the end of incubation, cells were harvested for cell count using a hemocytometer and measuring the cellular total nucleic acid content with the CyQUANT Cell Proliferation Assay Kit (Molecular Probes).
The PMF compounds were assayed in vitro for cell growth inhibition and for their ability to induce apoptosis in various human cancer cells, including HL-60, AGS, COLO 205, and HT-29 cells, using methods described in Section 8.4 above. Antiproliferative (IC50) and apoptosis-inducing activity (AC50) of PMFs in the HL-60, AGS, COLO 205, and HT-29 cells are reported in Table 9, where *P<0.05, **P<0.01 and ***P<0.001 indicate statistically significant differences from the control group.

[2] = test system: LPS-induced nitrite production in RAW 264.7 macrophages; assay: Nitrite assay (Griess reaction); assay type: cell-based, mouse; conditions: 100 ng/ml LPS, PMF 30 μM, 24 h, FIG. 3
Protocol: Compounds or compositions were tested for anti-inflammatory effects by monitoring nitrite production in LPS-activated RAW264.7 cells. After treating the cells with LPS or LPS and test substance, supernatants were harvested and the amount of nitrite, an indicator of NO synthesis, was measured by use of the Griess reaction. Briefly, supernatants (100 μl) were mixed with the same volume of Griess reagent (1% sulphanilamide in 5% phosphoric acid and 0.1% naphthylethylenediamine dihydrochloride in water) in duplicate on 96-well plates. After incubation at room temperature for 10 min, absorbance at 570 nm was measured with a ELISA reader (Thermo Labsystems Multiskan Ascent, Finland).
The anti-inflammatory effects of compounds A-K were tested by measuring nitrite production in LPS-activated RAW 264.7 macrophages, as described in Section 8.4 above. Macrophages were treated with 100 ng/ml LPS alone or LPS and PMF (10 or 30 μM) for 24 h. At the end of incubation time, 100 μl of the culture medium was collected for the nitrite assay.

HL-60 cells = assay: Cell cycle distribution by flow cytometry; assay type: cell-based, human; conditions: 24 h; for Cell Cycle Distribution G0/G1 / Cell Cycle Distribution G2/M / Cell Cycle Distribution S: Table 10
Protocol: (§1) The human cancer cells (2×10^5) were cultured in 60-mm Petri dishes and incubated for 24 h. After treated with test compounds for 24 h, the cells were then harvested, washed with PBS resuspended in 200 μL of PBS, and fixed in 800 μL of iced 100% ethanol at −20° C. After being left to stand overnight, the cell pellets were collected by centrifugation, resuspended in 1 mL of hypotonic buffer (0.5% Triton X-100 in PBS and 0.5 μg/mL RNase) and incubated at 37° C. for 30 min. Next, 1 mL of propidium iodide solution (50 μg/mL) was added, and the mixture was allowed to stand on ice for 30 min. Fluorescence emitted from the propidium iodide-DNA complex was quantitated after excitation of the fluorescent dye by FACScan cytometry (Becton Dickinson, San Jose, Calif.).
The effects of the hydrolyzed PMF-enriched compositions, nobiletin and 70% PMF OPE on cell cycle distribution were studied, following the procedures described in Section 8.4. Results for cell cycle distribution in HL-60 cells, COLO205 cells and AGS cells are provided in Table 5, Table 6 and Table 7, respectively. […] In HL-60 cells, G2/M arrest predominated in cells treated with 6N PMF concentrations ≧5 μM and with 1N PMF concentrations ≧25 μM.
(§2) Compounds A-K were evaluated in terms of their effects in arresting cell cycle progression by observing cell cycle phase distribution in cells treated with the compounds. Cells were treated with 5, 10, 25, 50, and 100 μM of one of compound A-K or DMSO (control) for 24 h and subjected to flow cytometric analysis after staining their DNA, as described above.

HT-29 cells [3] = assay: Cell cycle distribution by flow cytometry; assay type: cell-based, human; conditions: for Cell Cycle Distribution G0/G1 / Cell Cycle Distribution G2/M / Cell Cycle Distribution S: 24 h
Protocol: as §1, §2
Similar cell cycle phase distribution studies were performed in AGS, COLO205, and HT-29 cells in response to individual PMFs, with results reported in Tables 11, 12 and 13, respectively.

Row | SMILES | Cell Cycle Distribution G0/G1 (HL-60 cells; 5 μM) | Cell Cycle Distribution G2/M (HL-60 cells; 5 μM) | Cell Cycle Distribution S (HL-60 cells; 5 μM) | Cell Cycle Distribution G0/G1 (HL-60 cells; 10 μM) | Cell Cycle Distribution G2/M (HL-60 cells; 10 μM) | Cell Cycle Distribution S (HL-60 cells; 10 μM) | Cell Cycle Distribution G0/G1 (HL-60 cells; 25 μM) | Cell Cycle Distribution G2/M (HL-60 cells; 25 μM) | Cell Cycle Distribution S (HL-60 cells; 25 μM) | Cell Cycle Distribution G0/G1 (HL-60 cells; 50 μM) | Cell Cycle Distribution G2/M (HL-60 cells; 50 μM) | Cell Cycle Distribution S (HL-60 cells; 50 μM) | Cell Cycle Distribution G0/G1 (HL-60 cells; 100 μM) | Cell Cycle Distribution G2/M (HL-60 cells; 100 μM) | Cell Cycle Distribution S (HL-60 cells; 100 μM) | Cell Cycle Distribution G0/G1 (HT-29 cells [3]; 5 μM) | Cell Cycle Distribution G2/M (HT-29 cells [3]; 5 μM) | Cell Cycle Distribution S (HT-29 cells [3]; 5 μM) | Cell Cycle Distribution G0/G1 (HT-29 cells [3]; 10 μM) | Cell Cycle Distribution G2/M (HT-29 cells [3]; 10 μM) | further results
1 | COc1ccc(-c2oc3c(OC)c(OC)c(OC)c(OC)c3c(=O)c2O)cc1OC [B, 3-hydroxy-5,6,7,8,3′,4-hexamethoxyflavone] | 42.63 ± 0.85 | 9.99 ± 1.70 | 47.38 ± 0.42 | 40.76 ± 0.28 | 0.23 ± 0.42 | 59.01 ± 0.78 | 47.74 ± 0.71 | 0.00 ± 0.64 | 52.26 ± 0.64 | 41.48 ± 0.85 | 0.00 ± 0.57 | 58.52 ± 0.42 | 49.63 ± 0.28 | 0.51 ± 0.64 | 43.86 ± 0.21 | 63.71 ± 1.80 | 6.50 ± 0.37 | 29.8 ± 1.42 | 69.27 ± 3.06 | 5.60 ± 0.85 | IC50 (HT-29 cells [1]): 63.63 ± 0.49 µM; Rank of inhibitory potency on LPS-induced nitrite production [2]: H>G>K>C>I>B; Cell Cycle Distribution S (HT-29 cells [3]; 10 μM): 25.14 ± 2.21; Cell Cycle Distribution G0/G1 (HT-29 cells [3]; 25 μM): 70.85 ± 1.84; Cell Cycle Distribution G2/M (HT-29 cells [3]; 25 μM): 4.37 ± 0.62; Cell Cycle Distribution S (HT-29 cells [3]; 25 μM): 24.8 ± 1.23; Cell Cycle Distribution G0/G1 (HT-29 cells [3]; 50 μM): 70.11 ± 1.44; Cell Cycle Distribution G2/M (HT-29 cells [3]; 50 μM): 10.73 ± 0.47; Cell Cycle Distribution S (HT-29 cells [3]; 50 μM): 19.18 ± 0.96; Cell Cycle Distribution G0/G1 (HT-29 cells [3]; 100 μM): 66.75 ± 1.06; Cell Cycle Distribution G2/M (HT-29 cells [3]; 100 μM): 8.82 ± 0.26; Cell Cycle Distribution S (HT-29 cells [3]; 100 μM): 24.45 ± 0.80
2 | COc1cc(-c2cc(=O)c3c(OC)c(OC)c(OC)c(OC)c3o2)cc(OC)c1OC [F, 5,6,7,8,3′,4′,5′-heptamethoxyflavone, reference compound] | 42.11 ± 0.37 | 10.56 ± 1.16 | 47.34 ± 1.53 | 48.35 ± 1.83 | 10.59 ± 1.46 | 41.07 ± 0.37 | 57.82 ± 1.51 | 7.28 ± 1.54 | 34.90 ± 0.03 | 60.39 ± 0.23 | 8.44 ± 0.54 | 31.18 ± 0.30 | 63.66 ± 2.33 | 4.92 ± 0.46 | 31.43 ± 1.87 | 70.24 ± 0.52 | 7.11 ± 0.17 | 22.66 ± 0.35 | 76.34 ± 0.35 | 7.06 ± 0.42 | IC50 (HT-29 cells [1]; Homo sapiens): 96.4 ± 8.66 µM; Cell cycle arrest, in words (HL-60 cells; 25-100 μM): significant G1 arrest; Cell Cycle Distribution S (HT-29 cells [3]; 10 μM): 16.61 ± 0.06; Cell Cycle Distribution G0/G1 (HT-29 cells [3]; 25 μM): 82.19 ± 0.16; Cell Cycle Distribution G2/M (HT-29 cells [3]; 25 μM): 6.83 ± 0.61; Cell Cycle Distribution S (HT-29 cells [3]; 25 μM): 10.98 ± 0.45; Cell Cycle Distribution G0/G1 (HT-29 cells [3]; 50 μM): 88.64 ± 0.27; Cell Cycle Distribution G2/M (HT-29 cells [3]; 50 μM): 6.25 ± 0.58; Cell Cycle Distribution S (HT-29 cells [3]; 50 μM): 5.11 ± 0.31; Cell Cycle Distribution G0/G1 (HT-29 cells [3]; 100 μM): 89.85 ± 0.13; Cell Cycle Distribution G2/M (HT-29 cells [3]; 100 μM): 6.07 ± 0.06; Cell Cycle Distribution S (HT-29 cells [3]; 100 μM): 4.10 ± 0.06; Cell cycle arrest, in words (HT-29 cells [3]; 5-100 μM, 24 h exposure): significant accumulation of cells in G1 phase
3 | COc1ccc(-c2cc(=O)c3c(O)c(OC)c(OC)c(OC)c3o2)cc1OC [J, 5-hydroxy-6,7,8,3′,4′-pentamethoxyflavone] | 53.10 ± 0.46 | 7.94 ± 0.06 | 38.96 ± 0.51 | 51.74 ± 1.57 | 9.06 ± 0.54 | 39.20 ± 2.10 | 51.30 ± 1.68 | 8.20 ± 1.19 | 40.50 ± 2.87 | 49.22 ± 0.13 | 7.93 ± 0.36 | 42.86 ± 0.48 | 51.29 ± 0.74 | 7.45 ± 0.83 | 41.27 ± 0.09 | 64.81 ± 0.41 | 9.52 ± 0.05 | 25.68 ± 0.46 | 62.87 ± 0.40 | 9.02 ± 0.16 | IC50 (HT-29 cells [1]; Homo sapiens): > 100 µM; Cell Cycle Distribution S (HT-29 cells [3]; 10 μM): 28.11 ± 0.57; Cell Cycle Distribution G0/G1 (HT-29 cells [3]; 25 μM): 62.04 ± 1.24; Cell Cycle Distribution G2/M (HT-29 cells [3]; 25 μM): 8.46 ± 0.09; Cell Cycle Distribution S (HT-29 cells [3]; 25 μM): 29.51 ± 1.15; Cell Cycle Distribution G0/G1 (HT-29 cells [3]; 50 μM): 60.39 ± 0.28; Cell Cycle Distribution G2/M (HT-29 cells [3]; 50 μM): 9.93 ± 0.06; Cell Cycle Distribution S (HT-29 cells [3]; 50 μM): 29.55 ± 0.52; Cell Cycle Distribution G0/G1 (HT-29 cells [3]; 100 μM): 62.44 ± 1.00; Cell Cycle Distribution G2/M (HT-29 cells [3]; 100 μM): 7.89 ± 0.69; Cell Cycle Distribution S (HT-29 cells [3]; 100 μM): 29.67 ± 1.68
